Values quoted from earlier work as cited in patent US5948422A, “Oral dosage-forms containing a β-lactam antibiotic” (Yamanouchi Europe B.V., priority 1995, dated 1999).
Structures can show the parent of a compound that is named as a salt.

Details: compared with free acid, other salts and ester

bioavailability on oral administration: best bioavailability
SMILES: CC1(C)S[C@@H]2[C@H](NC(=O)COc3ccccc3)C(=O)N2[C@H]1C(=O)O [potassium salt, phenoxymethylpenicillin potassium]
